Results reported in ChEMBL document CHEMBL1154822, “Synthesis and antiproliferative activity of 7-azaindirubin-3'-oxime, a 7-aza isostere of the natural indirubin pharmacophore” (J Nat Prod, 2009).

How the values were obtained:
Type in all cases: functional
HOP-92 = test: Cytotoxicity against human HOP92 cells assessed as cell growth at 100 uM after 1 to 11 days by MTT assay; details: read-out: Activity
OVCAR-3 = test: Cytotoxicity against human OVCAR-3 cells assessed as cell growth at 1 mM after 1 to 11 days by MTT assay; details: read-out: Activity
UACC-257 = test: Cytotoxicity against human UACC257 cells assessed as cell growth at 1 mM after 1 to 11 days by MTT assay; details: read-out: Activity
NCI-H226 = test: Cytotoxicity against human NCI-H226 cells assessed as cell growth at 100 uM after 1 to 11 days by MTT assay; details: read-out: Activity
HT-29 = test: Cytotoxicity against human HT-29 cells assessed as cell growth at 1 uM after 1 to 11 days by MTT assay; details: read-out: Activity
M14 = test: Cytotoxicity against human M14 cells assessed as cell growth at 1 uM after 1 to 11 days by MTT assay; details: read-out: Activity
HOP-62 [1] = test: Cytotoxicity against human HOP62 cells after 1 to 11 days by MTT assay
SF-268 = test: Cytotoxicity against human SF268 cells assessed as cell growth at 0.1 uM after 1 to 11 days by MTT assay; details: read-out: Activity
Malme-3M [2] = test: Cytotoxicity against human MALME-3M cells after 1 to 11 days by MTT assay
NCI-H522 [3] = test: Cytotoxicity against human NCI-H522 cells assessed as cell growth at 0.1 uM after 1 to 11 days by MTT assay; details: read-out: Activity
SF-539 [4] = test: Cytotoxicity against human SF539 cells assessed as cell growth at 1 uM after 1 to 11 days by MTT assay; details: read-out: Activity
MDA-MB-468 [5] = test: Cytotoxicity against human MDA-MB-468 cells assessed as cell growth at 10 uM after 1 to 11 days by MTT assay; details: read-out: Activity
A549 [6] = test: Cytotoxicity against human A549 cells assessed as cell growth at 1 uM after 1 to 11 days by MTT assay; details: read-out: Activity
NCI-H460 = test: Cytotoxicity against human NCI-H460 cells assessed as cell growth at 1 mM after 1 to 11 days by MTT assay; details: read-out: Activity
MDA-MB-231 = test: Cytotoxicity against human MDA-MB-231 cells assessed as cell growth at 10 uM after 1 to 11 days by MTT assay; details: read-out: Activity
SK-MEL-28 [7] = test: Cytotoxicity against human SK-MEL-28 cells after 1 to 11 days by MTT assay
U-251 [8] = test: Cytotoxicity against human U251 cells assessed as cell growth at 10 uM after 1 to 11 days by MTT assay; details: read-out: Activity
NCI-H322M = test: Cytotoxicity against human NCI-H322M cells assessed as cell growth at 1 uM after 1 to 11 days by MTT assay; details: read-out: Activity
T47D [9] = test: Cytotoxicity against human T47D cells assessed as cell growth at 1 mM after 1 to 11 days by MTT assay; details: read-out: Activity
T47D [10] = test: Cytotoxicity against human T47D cells assessed as cell growth at 0.1 uM after 1 to 11 days by MTT assay; details: read-out: Activity
RPMI-8226 [11] = test: Cytotoxicity against human RPMI8226 cells after 1 to 11 days by MTT assay
BT-549 [12] = test: Cytotoxicity against human BT549 cells assessed as cell growth at 1 uM after 1 to 11 days by MTT assay; details: read-out: Activity
U-251 [13] = test: Cytotoxicity against human U251 cells after 1 to 11 days by MTT assay
ACHN [14] = test: Cytotoxicity against human ACHN cells assessed as cell growth at 1 uM after 1 to 11 days by MTT assay; details: read-out: Activity
SF-539 [15] = test: Cytotoxicity against human SF539 cells after 1 to 11 days by MTT assay
NCI-H522 [16] = test: Cytotoxicity against human NCI-H522 cells assessed as cell growth at 100 uM after 1 to 11 days by MTT assay; details: read-out: Activity
SK-OV-3 = test: Cytotoxicity against human SKOV3 cells assessed as cell growth at 10 uM after 1 to 11 days by MTT assay; details: read-out: Activity
BT-549 [17] = test: Cytotoxicity against human BT549 cells after 1 to 11 days by MTT assay
RPMI-8226 [18] = test: Cytotoxicity against human RPMI8226 cells assessed as cell growth at 0.1 uM after 1 to 11 days by MTT assay; details: read-out: Activity
A549 [19] = test: Cytotoxicity against human A549 cells assessed as cell growth at 0.1 uM after 1 to 11 days by MTT assay; details: read-out: Activity
MCF7 = test: Cytotoxicity against human MCF7 cells assessed as cell growth at 10 uM after 1 to 11 days by MTT assay; details: read-out: Activity
HCT-15 = test: Cytotoxicity against human HCT15 cells assessed as cell growth at 1 mM after 1 to 11 days by MTT assay; details: read-out: Activity
TK-10 = test: Cytotoxicity against human TK10 cells assessed as cell growth at 1 uM after 1 to 11 days by MTT assay; details: read-out: Activity
NCI-H23 = test: Cytotoxicity against human NCI-H23 cells assessed as cell growth at 1 uM after 1 to 11 days by MTT assay; details: read-out: Activity
SF-539 [20] = test: Cytotoxicity against human SF539 cells assessed as cell growth at 1 mM after 1 to 11 days by MTT assay; details: read-out: Activity
SNB-75 = test: Cytotoxicity against human SNB75 cells assessed as cell growth at 1 mM after 1 to 11 days by MTT assay; details: read-out: Activity
HOP-62 [21] = test: Cytotoxicity against human HOP62 cells assessed as cell growth at 100 uM after 1 to 11 days by MTT assay; details: read-out: Activity
DU-145 = test: Cytotoxicity against human DU145 cells assessed as cell growth at 10 uM after 1 to 11 days by MTT assay; details: read-out: Activity
MDA-MB-468 [22] = test: Cytotoxicity against human MDA-MB-468 cells assessed as cell growth at 1 mM after 1 to 11 days by MTT assay; details: read-out: Activity
COLO 205 = test: Cytotoxicity against human COLO205 cells assessed as cell growth at 10 uM after 1 to 11 days by MTT assay; details: read-out: Activity
SN12C = test: Cytotoxicity against human SN12C cells assessed as cell growth at 1 uM after 1 to 11 days by MTT assay; details: read-out: Activity
ACHN [23] = test: Cytotoxicity against human ACHN cells assessed as cell growth at 100 uM after 1 to 11 days by MTT assay; details: read-out: Activity
SK-MEL-28 [24] = test: Cytotoxicity against human SK-MEL-28 cells assessed as cell growth at 10 uM after 1 to 11 days by MTT assay; details: read-out: Activity
Malme-3M [25] = test: Cytotoxicity against human MALME-3M cells assessed as cell growth at 100 uM after 1 to 11 days by MTT assay; details: read-out: Activity
[26] = read-out: LC50 (the source's name)

## O=C1Nc2ncccc2/C1=C1/Nc2ccccc2/C1=N\O
HOP-92
  growth at 100 µM: 36%
OVCAR-3
  growth at 1000 µM: 51%
UACC-257
  growth at 1000 µM: 60%
NCI-H226
  growth at 100 µM: -5%
HT-29
  growth at 1 µM: 98%
M14
  growth at 1 µM: 95%
HOP-62 [1]
  GI50: > 100 µM
  TGI: > 100 µM
HOP-62 [1]; [26]
  CC50: > 100 µM
SF-268
  growth at 0.1 µM: 100%
Malme-3M [2]
  GI50: 3.36 µM
  TGI: 172 µM
Malme-3M [2]; [26]
  CC50: > 100 µM
NCI-H522 [3]
  growth at 0.1 µM: 100%
SF-539 [4]
  growth at 1 µM: 91%
MDA-MB-468 [5]
  growth at 10 µM: 80%
A549 [6]
  growth at 1 µM: 95%
NCI-H460
  growth at 1000 µM: 32%
MDA-MB-231
  growth at 10 µM: 76%
SK-MEL-28 [7]
  GI50: 32.8 µM
  TGI: > 100 µM
SK-MEL-28 [7]; [26]
  CC50: > 100 µM
U-251 [8]
  growth at 10 µM: 89%
NCI-H322M
  growth at 1 µM: 82%
T47D [9]
  growth at 1000 µM: 21%
T47D [10]
  growth at 0.1 µM: 100%
RPMI-8226 [11]
  GI50: 1.89 µM
  TGI: 62.5 µM
RPMI-8226 [11]; [26]
  CC50: > 100 µM
BT-549 [12]
  growth at 1 µM: 70%
U-251 [13]
  GI50: > 100 µM
  TGI: > 100 µM
U-251 [13]; [26]
  CC50: > 100 µM
ACHN [14]
  growth at 1 µM: 95%
SF-539 [15]
  GI50: > 100 µM
  TGI: > 100 µM
SF-539 [15]; [26]
  CC50: > 100 µM
NCI-H522 [16]
  growth at 100 µM: 61%
SK-OV-3
  growth at 10 µM: 69%
BT-549 [17]
  GI50: 5.41 µM
  TGI: > 100 µM
BT-549 [17]; [26]
  CC50: > 100 µM
RPMI-8226 [18]
  growth at 0.1 µM: 95%
A549 [19]
  growth at 0.1 µM: 102%
MCF7
  growth at 10 µM: 86%
HCT-15
  growth at 1000 µM: 24%
TK-10
  growth at 1 µM: 104%
NCI-H23
  growth at 1 µM: 90%
SF-539 [20]
  growth at 1000 µM: 52%
SNB-75
  growth at 1000 µM: 19%
HOP-62 [21]
  growth at 100 µM: 63%
DU-145
  growth at 10 µM: 84%
MDA-MB-468 [22]
  growth at 1000 µM: 13%
COLO 205
  growth at 10 µM: 84%
SN12C
  growth at 1 µM: 89%
ACHN [23]
  growth at 100 µM: 21%
SK-MEL-28 [24]
  growth at 10 µM: 87%
Malme-3M [25]
  growth at 100 µM: 13%
